The subject of experiment [1] is AML cell. Particulars: in combination with decitabine; cited from earlier work.
Experiment [2] has as its system THP-1. Kind of experiment: TCRL antibody binding (PR1-HLA-A2 presentation) on THP-1, flow cytometry. It counts as cell-based. Particulars: four doses of 1 μM added twice daily for two days, then two days culture. The method, then:
To determine the effect hypomethylation agents (HMAa) have on tumor antigen presentation, AML patient-derived tumor cells were treated for two days with four doses of 1 μM SGI-110, an HMA, added twice daily and then cultured for additional two days. TAP2 expression was assessed using immunohistochemical staining with and without treatment with SGI-110 (FIG. 3A). The HLA-A2 expressing AML cell line, THP-1, was treated for two days with four doses of 1 μM SGI-110 added twice daily and then cultured for an additional two days. The cells were then analyzed for binding capacity of a unique T cell receptor-like (TCRL) antibody. The TCRL antibody is a TCR mimic that recognizes the PR1-HLA-A2-MHC complex on the surface of leukemic cells where PR-1 is a known leukemic antigen. […] An HLA-A2 negative cell line U937 (histiocytic lymphoma) was used as a negative control.

Experiment [3] has as its system chronic lymphocytic leukemia (CLL) and AML cells. Particulars: cited from earlier work.
The subject of experiment [4] is multiple myeloma (MM) and AML cell lines. Particulars: single agent; cited from earlier work.

The structures appear in SMILES notation. Square brackets hold non-standard residues; d marks the D form. Peptide text beside a SMILES is read from it.

For the compound `N=C(N)NCCC[C@@H](N)C(=O)N[C@H](CCCNC(=N)N)C(=O)N[C@H](CCCNC(=N)N)C(=O)N[C@H](CCCNC(=N)N)C(=O)N[C@H](CCCNC(=N)N)C(=O)N[C@H](CCCNC(=N)N)C(=O)N[C@H](CCCNC(=N)N)C(=O)N[C@H](CCCNC(=N)N)C(=O)N[C@H](CCCNC(=N)N)C(=O)N[C@H](CS)C(=O)N[C@H](CCC(N)=O)C(=O)N[C@H](CS)C(=O)N[C@H](CCCNC(=N)N)C(=O)N[C@H](CCCNC(=N)N)C(=O)N[C@H](CCCCN)C(=O)N[C@H](CC(N)=O)C(=O)O.O=C(O)C(F)(F)F` [GO-203, D-arginyl-D-arginyl-D-arginyl-D-arginyl-D-arginyl-D-arginyl-D-arginyl-D-arginyl-D-arginyl-D-cysteinyl-D-glutaminyl-D-cysteinyl-D-arginyl-D-arginyl-D-lysyl-D-asparagine trifluoroacetic acid] (H-[dR][dR][dR][dR][dR][dR][dR][dR][dR][dC][dQ][dC][dR][dR][dK][dN]-OH), the “DNMT1 levels and AML cell survival” value in experiment [1] is “effectively reduces DNMT1 levels and AML cell survival”.

Turning to `Nc1ncn([C@H]2C[C@H](OP(=O)(O)OCC3O[C@@H](n4cnc5c(=O)[nH]c(N)nc54)CC3O)[C@@H](CO)O2)c(=O)n1` (stereo in doubt) [SGI-110, 2′-deoxy-5-aza-cytidylyl-(3′->5′)-2′-deoxy-guanosine], in experiment [2], the “tumor antigen presentation, binding of TCRL antibody” value is “increased binding of TCRL antibody”.

`CC1(C)CCC(c2ccc(Cl)cc2)=C(CN2CCN(c3ccc(C(=O)NS(=O)(=O)c4ccc(N[C@H](CCN5CCOCC5)CSc5ccccc5)c(S(=O)(=O)C(F)(F)F)c4)cc3)CC2)C1` [navitoclax, 4-[4-[[2-(4-chlorophenyl)-5,5-dimethylcyclohexen-1-yl]methyl]piperazin-1-yl]-N-[4-[[(2R)-4-morpholin-4-yl-1-phenylsulfanylbutan-2-yl]amino]-3-(trifluoromethylsulfonyl)phenyl]sulfonylbenzamide]: the anti-cancer activity result in experiment [3] is recorded as “anti-cancer activity”.

In the case of `CN(C)CC[C@H](CSc1ccccc1)Nc1ccc(S(=O)(=O)NC(=O)c2ccc(N3CCN(Cc4ccccc4-c4ccc(Cl)cc4)CC3)cc2)cc1[N+](=O)[O-]` [ABT-737, 4-[4-[[2-(4-chlorophenyl)phenyl]methyl]piperazin-1-yl]-N-[4-[[(2R)-4-(dimethylamino)-1-phenylsulfanylbutan-2-yl]amino]-3-nitrophenyl]sulfonylbenzamide], the “activity against cell lines” value in experiment [4] was “single agent activity”.

The values above are taken from patent US20250319183A1, “COMPOSITIONS AND METHODS FOR THE TREATMENT OF CANCER” (Beth Israel Deaconess Medical Center, priority 2021, published 2025).
